Source: PubChem BioAssay (NCI)
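96-well plates; 48 h exposure; 5 concentrations. Endpoints by linear interpolation between flanking doses. Not reached: highest tested concentration assigned. Abbreviation: GI50, concentration required for 50% inhibition of growth. TGI: concentration producing complete growth inhibition.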

How the values were obtained:
Test in all cases: growth of human tumour cells (NCI), 48 h
MCF7 breast = tested on: MCF7 breast
SR leukemia = tested on: SR leukemia
SK-OV-3 ovarian = tested on: SK-OV-3 ovarian
KM12 colon = tested on: KM12 colon
PC-3 prostate = tested on: PC-3 prostate
CCRF-CEM leukemia = tested on: CCRF-CEM leukemia
786-0 renal = tested on: 786-0 renal
M14 melanoma = tested on: M14 melanoma
SK-MEL-28 melanoma = tested on: SK-MEL-28 melanoma
SNB-75 CNS = tested on: SNB-75 CNS
TK-10 renal = tested on: TK-10 renal
SNB-19 CNS = tested on: SNB-19 CNS
NCI-H522 lung = tested on: NCI-H522 lung
COLO 205 colon = tested on: COLO 205 colon
HL-60(TB) leukemia = tested on: HL-60(TB) leukemia
OVCAR-4 ovarian = tested on: OVCAR-4 ovarian
ACHN renal = tested on: ACHN renal
UO-31 renal = tested on: UO-31 renal
DU-145 prostate = tested on: DU-145 prostate
EKVX NSCLC = tested on: EKVX NSCLC
MOLT-4 leukemia = tested on: MOLT-4 leukemia
HS 578T breast = tested on: HS 578T breast
SF-539 CNS = tested on: SF-539 CNS
U251 CNS = tested on: U251 CNS
HOP-92 NSCLC = tested on: HOP-92 NSCLC
K-562 leukemia = tested on: K-562 leukemia
NCI-H226 lung = tested on: NCI-H226 lung
MALME-3M melanoma = tested on: MALME-3M melanoma
OVCAR-5 ovarian = tested on: OVCAR-5 ovarian
SF-268 CNS = tested on: SF-268 CNS
SW-620 colon = tested on: SW-620 colon
NCI-H23 lung = tested on: NCI-H23 lung
SF-295 CNS = tested on: SF-295 CNS
A549 NSCLC = tested on: A549 NSCLC
MDA-MB-231 breast = tested on: MDA-MB-231 breast
HCC-2998 colon = tested on: HCC-2998 colon
SK-MEL-5 melanoma = tested on: SK-MEL-5 melanoma
HT29 colon = tested on: HT29 colon
NCI/ADR-RES ovarian = tested on: NCI/ADR-RES ovarian
UACC-62 melanoma = tested on: UACC-62 melanoma
HCT-116 colon = tested on: HCT-116 colon
OVCAR-8 ovarian = tested on: OVCAR-8 ovarian
SN12C renal = tested on: SN12C renal
RPMI-8226 leukemia = tested on: RPMI-8226 leukemia
UACC-257 melanoma = tested on: UACC-257 melanoma
CAKI-1 renal = tested on: CAKI-1 renal
HCT-15 colon = tested on: HCT-15 colon
LOX IMVI melanoma = tested on: LOX IMVI melanoma
T-47D breast = tested on: T-47D breast
MDA-MB-435 = tested on: MDA-MB-435
HOP-62 NSCLC = tested on: HOP-62 NSCLC
BT-549 breast = tested on: BT-549 breast
RXF 393 renal = tested on: RXF 393 renal
A498 renal = tested on: A498 renal
NCI-H460 lung = tested on: NCI-H460 lung
IGROV1 ovarian = tested on: IGROV1 ovarian

`C#C[C@]1(O)CC[C@H]2[C@@H]3CC=C4c5sc(NCc6ccccc6)nc5CC[C@]4(C)[C@H]3CC[C@@]21C` gave a GI50 (MCF7 breast) of 3.31 µM, a TGI (MCF7 breast) of 10 µM and a GI50 (SR leukemia) of 3.16 µM. The TGI (SR leukemia) was 29.6 µM, the GI50 (SK-OV-3 ovarian) was 2.08 µM and the TGI (SK-OV-3 ovarian) was 4.41 µM. For the same compound, the GI50 (KM12 colon) was 3.18 µM, the TGI (KM12 colon) was 10.8 µM and the GI50 (PC-3 prostate) was 2.29 µM. It also gave a TGI (PC-3 prostate) of 6.77 µM, a GI50 (CCRF-CEM leukemia) of 2.94 µM and a TGI (CCRF-CEM leukemia) of 9.49 µM. For the same compound, the GI50 (786-0 renal) was 1.73 µM, the TGI (786-0 renal) was 3.47 µM and the GI50 (M14 melanoma) was 2.94 µM. The TGI (M14 melanoma) was 10.1 µM, the GI50 (SK-MEL-28 melanoma) was 2.31 µM and the TGI (SK-MEL-28 melanoma) was 7.2 µM. The GI50 (SNB-75 CNS) was 1.89 µM, the GI50 (TK-10 renal) was 5.48 µM and the TGI (TK-10 renal) was 18.5 µM. The GI50 (SNB-19 CNS) was 4.01 µM, the TGI (SNB-19 CNS) was 18 µM and the GI50 (NCI-H522 lung) was 2.62 µM. The TGI (NCI-H522 lung) was 8.35 µM, the GI50 (COLO 205 colon) was 1.92 µM and the TGI (COLO 205 colon) was 3.62 µM. The GI50 (HL-60(TB) leukemia) was 3.01 µM, the TGI (HL-60(TB) leukemia) was 9.19 µM and the GI50 (OVCAR-4 ovarian) was 8.48 µM. It also gave a TGI (OVCAR-4 ovarian) of 32.9 µM, a GI50 (ACHN renal) of 3.92 µM and a TGI (ACHN renal) of 15.9 µM. The GI50 (UO-31 renal) was 2.21 µM, the TGI (UO-31 renal) was 5.41 µM and the GI50 (DU-145 prostate) was 7.54 µM. It also gave a TGI (DU-145 prostate) of 40.5 µM, a GI50 (EKVX NSCLC) of 4.16 µM and a TGI (EKVX NSCLC) of 16.3 µM. For the same compound, the GI50 (MOLT-4 leukemia) was 2.66 µM, the TGI (MOLT-4 leukemia) was 8.69 µM and the GI50 (HS 578T breast) was 2.02 µM. For the same compound, the TGI (HS 578T breast) was 6.42 µM, the GI50 (SF-539 CNS) was 1.4 µM and the TGI (SF-539 CNS) was 3.18 µM. It also gave a GI50 (U251 CNS) of 1.8 µM, a TGI (U251 CNS) of 5.8 µM and a GI50 (HOP-92 NSCLC) of 1.56 µM. For the same compound, the TGI (HOP-92 NSCLC) was 7.34 µM, the GI50 (K-562 leukemia) was 3.23 µM and the TGI (K-562 leukemia) was greater than 100 µM. It also gave a GI50 (NCI-H226 lung) of 11.3 µM, a TGI (NCI-H226 lung) of 37.1 µM and a GI50 (MALME-3M melanoma) of 2.14 µM. It also gave a TGI (MALME-3M melanoma) of 5.38 µM, a GI50 (OVCAR-5 ovarian) of 4.55 µM and a TGI (OVCAR-5 ovarian) of 17.6 µM. The GI50 (SF-268 CNS) was 3.85 µM, the TGI (SF-268 CNS) was 16.4 µM and the GI50 (SW-620 colon) was 2.22 µM. It also gave a TGI (SW-620 colon) of 4.68 µM, a GI50 (NCI-H23 lung) of 4.4 µM and a TGI (NCI-H23 lung) of 20.8 µM. For the same compound, the GI50 (SF-295 CNS) was 1.94 µM, the TGI (SF-295 CNS) was 4.08 µM and the GI50 (A549 NSCLC) was 3.48 µM. The TGI (A549 NSCLC) was 13.1 µM, the GI50 (MDA-MB-231 breast) was 2.64 µM and the TGI (MDA-MB-231 breast) was 7.07 µM. It also gave a GI50 (HCC-2998 colon) of 4.05 µM, a TGI (HCC-2998 colon) of 14.1 µM and a GI50 (SK-MEL-5 melanoma) of 2.91 µM. For the same compound, the TGI (SK-MEL-5 melanoma) was 8.8 µM, the GI50 (HT29 colon) was 1.68 µM and the TGI (HT29 colon) was 3.54 µM. The GI50 (NCI/ADR-RES ovarian) was 3.87 µM, the TGI (NCI/ADR-RES ovarian) was 43.9 µM and the GI50 (UACC-62 melanoma) was 1.97 µM. It also gave a TGI (UACC-62 melanoma) of 4.49 µM, a GI50 (HCT-116 colon) of 3.37 µM and a TGI (HCT-116 colon) of 11.5 µM. For the same compound, the GI50 (OVCAR-8 ovarian) was 3.78 µM, the TGI (OVCAR-8 ovarian) was 14.4 µM and the GI50 (SN12C renal) was 3.52 µM. For the same compound, the TGI (SN12C renal) was 16.7 µM, the GI50 (RPMI-8226 leukemia) was 1.65 µM and the TGI (RPMI-8226 leukemia) was 4.53 µM. It also gave a GI50 (UACC-257 melanoma) of 1.82 µM, a TGI (UACC-257 melanoma) of 3.72 µM and a GI50 (CAKI-1 renal) of 2.59 µM. For the same compound, the TGI (CAKI-1 renal) was 8.04 µM, the GI50 (HCT-15 colon) was 1.7 µM and the TGI (HCT-15 colon) was 4.15 µM. The GI50 (LOX IMVI melanoma) was 2.19 µM, the TGI (LOX IMVI melanoma) was 4.93 µM and the GI50 (T-47D breast) was 2.76 µM. For the same compound, the TGI (T-47D breast) was 16.6 µM, the GI50 (MDA-MB-435) was 3.73 µM and the TGI (MDA-MB-435) was 18.7 µM. The GI50 (HOP-62 NSCLC) was 2.05 µM, the TGI (HOP-62 NSCLC) was 4.94 µM and the GI50 (BT-549 breast) was 2.82 µM. It also gave a TGI (BT-549 breast) of 7.27 µM, a GI50 (RXF 393 renal) of 1.23 µM and a TGI (RXF 393 renal) of 3.17 µM. It also gave a GI50 (A498 renal) of 1.72 µM, a TGI (A498 renal) of 4.24 µM and a GI50 (NCI-H460 lung) of 4.66 µM. It also gave a TGI (NCI-H460 lung) of 16.6 µM, a GI50 (IGROV1 ovarian) of 5.83 µM and a TGI (IGROV1 ovarian) of 23.3 µM.
